Experimental data: the supplement of paper PMC10307832

Tests used:
Assay in all cases: relative viability (nuclei count vs DMSO), 5 days (fraction); higher = more cells survive
[1] = compound: CN(C)C(=N)NC(=N)N [Metformin] + C[C@@H](Oc1cc(-c2cnn(C3CCNCC3)c2)cnc1N)c1c(Cl)ccc(F)c1Cl [Crizotinib] (partner 1 µM)
In short: (§1)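 Lung cancer cell lines in 1536-well plates got either a single drug or a fixed anchor-drug dose together with five library-drug doses (not always all listed) in √10 steps, by pin tool, on the day after seeding. Nuclei were counted after 5 days, and relative viability is the treated-to-vehicle ratio of nuclei counts. Values are medians of duplicate plates.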

[2] = compound: CN(C)C(=N)NC(=N)N [Metformin] + COc1cc2c(Oc3ccc(NC(=O)C4(C(=O)Nc5ccc(F)cc5)CC4)cc3F)ccnc2cc1OCCCN1CCOCC1 [Foretinib] (partner 0.25 µM)
In short: as §1

[3] = compound: N#CC1(c2ccc(NC(=O)c3cccnc3NCc3ccncc3)cc2)CCCC1 [Apatinib] + CS(=O)(=O)N1CCN(Cc2cc3nc(-c4cccc5[nH]ncc45)nc(N4CCOCC4)c3s2)CC1 [Pictilisib] (partner 1 µM)
In short: as §1

[4] = compound: CN(C)C(=N)NC(=N)N [Metformin] + C[C@]1(O)C[C@@H](c2nc(-c3ccc4ccc(-c5ccccc5)nc4c3)c3c(N)nccn32)C1 [Linsitinib] (partner 1 µM)
In short: as §1

Cell Line | relative viability ([1]; first compound 10 µM) | relative viability ([1]; first compound 31.62 µM) | relative viability ([1]; first compound 100 µM) | relative viability ([1]; first compound 316.23 µM) | relative viability ([1]; first compound 1000 µM) | relative viability ([2]; first compound 10 µM) | relative viability ([2]; first compound 31.62 µM) | relative viability ([2]; first compound 100 µM) | relative viability ([2]; first compound 316.23 µM) | relative viability ([2]; first compound 1000 µM) | relative viability ([3]; first compound 0.08 µM) | relative viability ([3]; first compound 0.253 µM) | relative viability ([3]; first compound 0.8 µM) | relative viability ([3]; first compound 2.53 µM) | relative viability ([3]; first compound 8 µM) | relative viability ([4]; first compound 10 µM) | relative viability ([4]; first compound 31.62 µM) | relative viability ([4]; first compound 100 µM) | relative viability ([4]; first compound 316.23 µM) | relative viability ([4]; first compound 1000 µM)
H3255 | 0.754 | 0.934 | 0.809 | 0.84 | 0.384 | 0.863 | 0.96 | 0.91 | 0.747 | 0.877 | 0.448 | 0.454 | 0.388 | 0.436 | 0.447 | 0.942 | 1.08 | 0.961 | 0.938 | 0.873
RERF-LC-KJ | 0.802 | 0.739 | 0.718 | 0.424 | 0.74 | 0.775 | 0.796 | 0.804 | 0.763 | 0.935 | 0.591 | 0.701 | 0.438 | 0.469 | 0.462 | 0.835 | 0.769 | 0.857 | 0.768 | 0.829
NCI-H2347 | 0.545 | 0.763 | 0.85 | 0.566 | 0.675 | 0.844 | 0.578 | 0.784 | 0.885 | 0.459 | 0.51 | 0.673 | 0.748 | 0.552 | 0.596 | 0.753 | 0.89 | 0.973 | 0.862 | 0.943
NCI-H520 | 0.804 | 0.75 | 0.803 | 0.752 | 0.606 | 0.765 | 0.74 | 0.783 | 0.703 | 0.953 | 0.281 | 0.268 | 0.301 | 0.314 | 0.275 | 1.09 | 0.842 | 1.02 | 0.914 | 0.931
LK-2 | 0.228 | 0.214 | 0.234 | 0.176 | 0.245 | 1.72 | 1.93 | 1.79 | 1.28 |  | 0.532 | 0.511 | 0.484 | 0.326 | 0.428 | 0.906 | 0.996 | 0.948 | 0.694 | 0.81
PC-14 | 0.889 | 0.912 | 0.896 | 0.769 | 0.894 | 0.795 | 1.08 | 0.879 | 0.932 | 1 | 0.708 | 0.837 | 0.39 | 0.547 | 0.55 | 1.03 | 0.955 | 0.916 | 0.918 | 1.03
NCI-H2023 |  | 0.767 | 0.706 |  | 0.512 | 0.99 | 0.828 | 0.854 | 0.909 | 0.47 | 0.269 | 0.228 | 0.209 | 0.209 | 0.231 |  | 0.687 | 0.806 |  | 0.515
NCI-H838 | 0.815 | 0.814 | 0.875 | 0.864 | 0.854 | 1.04 | 1.13 | 1.07 | 0.984 | 0.996 | 0.533 | 0.462 | 0.41 | 0.469 | 0.451 | 1.04 | 1.09 | 1.05 | 0.988 | 1.02
EKVX | 0.657 | 0.896 | 0.958 | 0.716 | 0.895 | 0.456 | 1.03 | 0.886 |  | 0.303 | 0.454 | 0.394 | 0.435 | 0.341 | 0.401 | 0.739 | 0.969 | 1.04 | 0.861 | 0.9
NCI-H1944 | 1.06 | 1.29 | 1.26 | 1.11 | 1.12 | 0.881 | 0.995 | 1.03 | 0.924 | 0.996 | 0.344 | 0.345 | 0.306 | 0.282 | 0.303 | 1.36 | 1.39 | 1.34 | 1.27 | 1.26
EPLC-272H | 1.07 | 1.03 | 0.874 | 0.918 | 1.06 | 0.864 | 0.909 | 0.978 | 0.784 | 1.09 | 0.351 | 0.331 | 0.357 | 0.324 | 0.349 | 1.39 | 1.39 | 1.26 | 1.08 | 1.51
NCI-H1666 | 1.26 | 1.03 | 1.15 | 1.09 | 1.2 | 1.03 | 1.03 | 1.08 | 1.03 | 1.09 | 0.408 | 0.413 | 0.456 | 0.418 | 0.54 | 0.863 | 1 | 0.962 | 0.703 | 1.09
A549 | 0.782 | 0.531 | 0.653 | 0.723 | 0.777 | 0.867 | 0.9 | 0.9 | 0.853 | 0.944 | 0.651 | 0.626 | 0.421 | 0.488 | 0.406 | 0.647 | 0.789 | 0.85 | 0.631 | 0.711
